What was measured:
[1] = system: HBV (HepG2.117 cell line, inducibly HBV producing); assay: Anti-HBV activity, intracellular HBV DNA by real-time PCR in HepG2.117 cell line; type: cell-based, hepatitis B virus; details: HepG2.117 cells, 3 days of treatment
In short: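 Inducible HBV-producing HepG2.117 line (Tet-off); 3-day exposure to serially diluted compound after induction; real-time PCR of intracellular viral DNA.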

HepG2 or HepG2.117 cells = assay: Cytotoxicity, ATPlite Luminescence Assay; type: cell-based, human; details: 3-days incubation unless marked with *
In short: (§1)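 Luminescent ATP quantitation served as the viability endpoint following a 3- or 4-day incubation with test compounds.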

[2] = Human liver microsome stability; type: in vitro ADME; details: 1 μM compound, NADPH 1 mM, 37° C., 0-60 min; for HLM Metabolism t1/2: pooled human liver microsomes 0.5 mg/mL; for half-life at 1 μM: human, pooled human liver microsomes, pH 7.4, pooled human liver microsomes 0.5 mg/mL, read-out: HLM Metabolism t1/2
In short: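 Single incubations with human liver microsomes started with 1 mM NADPH; samples taken at 0, 5, 10, 20, 40 and 60 min, quenched in acetonitrile (1:3). Cassette LC-MS analysis with internal standard; t½ derived from slope of ln peak-area ratio versus time (k = −gradient).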

[3] = Cytotoxicity, ATPlite Luminescence Assay; type: cell-based, human; details: human, HepG2 or HepG2.117 cells, 3-days incubation unless marked with *
In short: as §1

[4] = Hepatitis B virus, HepG2.117, 72 h

SMILES | EC50 [1] | CC50 (HepG2 or HepG2.117 cells) | HLM Metabolism t1/2 [2] | EC50 [1, 4] | CC50 at 3 days [3] | half-life at 1 μM [2]
CC(c1ccn(C(F)F)c(=O)c1)N1C[C@@H](C)n2nc3c(c2C1=O)CN(C(=O)c1ccc(Cl)c(C(F)(F)F)c1)[C@H](C)C3 (single isomer, unassigned) [Compound 49B, (3R,7R)-2-(4-chloro-3-(trifluoromethyl)benzoyl)-9-((S*)-1-(1-(difluoromethyl)-2-oxo-1,2-dihydropyridin-4-yl)ethyl)-3,7-dimethyl-1,2,3,4,8,9-hexahydropyrido [4′,3′:3,4]pyrazolo[1,5-a]pyrazin-10(7H)-one] | 0.013 µM | > 50 µM | >3 h | – | – | –
CNS(=O)(=O)c1ccc(C(C)N2C[C@@H](C)n3nc4c(c3C2=O)CN(C(=O)c2ccc(Cl)c(Cl)c2)[C@H](C)C4)cc1 (single isomer, unassigned) [Compound 17B, 4-((S*)-1-((3R,7R)-2-(3,4-dichlorobenzoyl)-3,7-dimethyl-10-oxo-1,3,4,7,8,10-hexahydropyrido[4′,3′:3,4]pyrazolo[1,5-a]pyrazin-9(2H)-yl)ethyl)-N-methylbenzenesulfonamide] | 0.026 µM | > 50 µM | 1.6 h | – | – | –
CC(c1ccnc(OC(F)F)c1)N1C[C@@H](C)n2nc3c(c2C1=O)CN(C(=O)c1ccc(Cl)c(C(F)(F)F)c1)[C@H](C)C3 (single isomer, unassigned) [Compound 50B, (3R,7R)-2-(4-chloro-3-(trifluoromethyl)benzoyl)-9-((S*)-1-(2-(difluoromethoxy)pyridin-4-yl)ethyl)-3,7-dimethyl-1,2,3,4,8,9-hexahydropyrido[4′,3′:3,4]pyrazolo[1,5-a]pyrazin-10(7H)-one] | 0.024 µM | 10.2 µM | >3 h | – | – | –
CC(c1cnc(C(C)(C)O)nc1)N1C[C@@H](C)n2nc3c(c2C1=O)CN(C(=O)c1ccc(Cl)c(C(F)(F)F)c1)[C@H](C)C3 (single isomer, unassigned) [Compound 35B, (3R,7R)-2-(4-chloro-3-(trifluoromethyl)benzoyl)-9-((S*)-1-(2-(2-hydroxypropan-2-yl)pyrimidin-5-yl)ethyl)-3,7-dimethyl-1,2,3,4,8,9-hexahydropyrido[4′,3′:3,4]pyrazolo[1,5-a]pyrazin-10(7H)-one] | 0.01 µM | > 50 µM | >3 h | – | – | –
CC(c1nnc(C2CC2)o1)N1C[C@@H](C)n2nc3c(c2C1=O)CN(C(=O)c1ccc(Cl)c(Cl)c1)[C@H](C)C3 (single isomer, unassigned) [Compound 44B, (3R,7R)-9-((S*)-1-(5-cyclopropyl-1,3,4-oxadiazol-2-yl)ethyl)-2-(3,4-dichlorobenzoyl)-3,7-dimethyl-1,2,3,4,8,9-hexahydropyrido[4′,3′:3,4]pyrazolo[1,5-a]pyrazin-10(7H)-one] | 0.065 µM | > 50 µM | 2.22 h | – | – | –
CC(c1ccc(N2CCCC2=O)cc1)N1C[C@@H](C)n2nc3c(c2C1=O)CN(C(=O)c1ccc(Cl)c(C#N)c1)[C@H](C)C3 (single isomer, unassigned) [Compound 9A, 2-Chloro-5-((3R,7R)-3,7-Dimethyl-10-oxo-9-((R*)-1-(4-(2-oxopyrrolidin-1-yl)phenyl)ethyl)-1,2,3,4,7,8,9,10-octahydropyrido[4′,3′:3,4]pyrazolo[1,5-a]pyrazine-2-carbonyl)benzonitrile] | – | – | 0.84 h | 0.022 µM | > 50 µM | –
CC(c1ccc(N2CCCS2(=O)=O)nc1)N1C[C@@H](C)n2nc3c(c2C1=O)CN(C(=O)c1ccc(Cl)c(C(F)(F)F)c1)[C@H](C)C3 (single isomer, unassigned) [Compound 28A, (3R,7R)-2-(4-chloro-3-(trifluoromethyl)benzoyl)-9-((R*)-1-(6-(1,1-dioxidoisothiazolidin-2-yl)pyridin-3-yl)ethyl)-3,7-dimethyl-1,2,3,4,8,9-hexahydropyrido[4′,3′: 3,4]pyrazolo[1,5-a]pyrazin-10(7H)-one] | – | – | 0.835 h | 0.012 µM | > 50 µM | –
Cc1ccc(C(C)N2C[C@@H](C)n3nc4c(c3C2=O)CN(C(=O)c2ccc(Cl)c(Cl)c2)[C@H](C)C4)nn1 (single isomer, unassigned) [Compound 6A, (3R,7R)-2-(3,4-dichlorobenzoyl)-3,7-dimethyl-9-((R*)-1-(6-methylpyridazin-3-yl)ethyl)-1,2,3,4,8,9-hexahydropyrido[4′,3′:3,4]pyrazolo[1,5-a]pyrazin-10(7H)-one] | – | – | 1.18 h | 0.086 µM | > 50 µM | –
CC(c1ccn(CC(F)(F)F)n1)N1C[C@@H](C)n2nc3c(c2C1=O)CN(C(=O)c1ccc(Cl)c(C#N)c1)[C@H](C)C3 (single isomer, unassigned) [Compound 42B, 2-chloro-5-((3R,7R)-3,7-dimethyl-10-oxo-9-((S*)-1-(1-(2,2,2-trifluoroethyl)-1H-pyrazol-3-yl)ethyl)-1,2,3,4,7,8,9,10-octahydropyrido[4′,3′:3,4]pyrazolo[1,5-a]pyrazine-2-carbonyl)benzonitrile] | – | – | – | 0.06 µM | > 50 µM | > 3 h
CNC(=O)C(c1ccc(OC(F)F)cc1)N1C[C@@H](C)n2nc3c(c2C1=O)CN(C(=O)c1ccc(Cl)c(Cl)c1)[C@H](C)C3 (single isomer, unassigned) [Compound 23A, (R*)-2-((3R,7R)-2-(3,4-dichlorobenzoyl)-3,7-dimethyl-10-oxo-1,3,4,7,8,10-hexahydropyrido[4′,3′:3,4]pyrazolo[1,5-a]pyrazin-9(2H)-yl)-2-(4-(difluoromethoxy)phenyl)-N-methylacetamide] | 0.066 µM | – | – | – | 32.1 µM | 1.88 h
Cc1nnnn1-c1ccc(C(C)N2C[C@@H](C)n3nc4c(c3C2=O)CN(C(=O)c2ccc(Cl)c(Cl)c2)[C@H](C)C4)cn1 (single isomer, unassigned) [Compound 27A, (3R,7R)-2-(3,4-dichlorobenzoyl)-3,7-dimethyl-9-((R*)-1-(6-(5-methyl-1H-tetrazol-1-yl)pyridin-3-yl)ethyl)-1,2,3,4,8,9-hexahydropyrido[4′,3′:3,4]pyrazolo[1,5-a]pyrazin-10(7H)-one] | 0.24 µM | – | >3 h | – | > 50 µM | –
CC(c1ccc(=O)n(C)n1)N1C[C@@H](C)n2nc3c(c2C1=O)CN(C(=O)c1ccc(Cl)c(Cl)c1)[C@H](C)C3 (single isomer, unassigned) [Compound 55A, (3R,7R)-2-(3,4-dichlorobenzoyl)-3,7-dimethyl-9-((R*)-1-(1-methyl-6-oxo-1,6-dihydropyridazin-3-yl)ethyl)-1,2,3,4,8,9-hexahydropyrido[4′,3′:3,4]pyrazolo[1,5-a]pyrazin-10(7H)-one] | – | – | – | 0.051 µM | > 50 µM | > 3 h
CNC(=O)C1(Oc2ccc(C(C)N3C[C@@H](C)n4nc5c(c4C3=O)CN(C(=O)c3ccc(Cl)c(C#N)c3)[C@H](C)C5)cc2)CC1 (single isomer, unassigned) [Compound 13A, 1-(4-((R*)-1-((3R,7R)-2-(4-chloro-3-cyanobenzoyl)-3,7-dimethyl-10-oxo-1,2,3,4,7,8-hexahydropyrido[4′,3′:3,4]pyrazolo[1,5-a]pyrazin-9(10H)-yl)ethyl)phenoxy)-N-methylcyclopropanecarboxamide] | 0.037 µM | – | – | – | > 50 µM | 1.88 h
C[C@@H]1Cc2nn3c(c2CN1C(=O)c1ccc(Cl)c(C#N)c1)C(=O)N([C@@H](C)c1ccc(OC(F)F)cc1)C[C@@H]3C (relative stereo) [Compound 1B, 2-Chloro-5-((3R,7S*)-9-((S*)-1-(4-(difluoromethoxy)phenyl)ethyl)-3,7-dimethyl-10-oxo-1,2,3,4,7,8,9,10-octahydropyrido[4′,3′:3,4]pyrazolo[1,5-a]pyrazine-2-carbonyl)benzonitrile] | – | – | – | 1.49 µM | > 50 µM | 0.612 h
CC(c1ccc(C(C)(C)O)nc1)N1C[C@@H](C)n2nc3c(c2C1=O)CN(C(=O)c1cc(F)c(Cl)c(F)c1)[C@H](C)C3 (single isomer, unassigned) [Compound 60A, (3R,7R)-2-(4-chloro-3,5-difluorobenzoyl)-9-((R*)-1-(6-(2-hydroxypropan-2-yl)pyridin-3-yl)ethyl)-3,7-dimethyl-1,2,3,4,8,9-hexahydropyrido[4′,3′:3,4]pyrazolo[1,5-a]pyrazin-10(7H)-one] | 0.3 µM | – | – | – | > 50 µM | > 3 h
C[C@@H]1Cc2nn3c(c2CN1C(=O)c1ccc(Cl)c(C(F)(F)F)c1)C(=O)N([C@H](C)c1ccc([S@](C)(=N)=O)cc1)C[C@H]3C (relative stereo) [Compound 19A, (3R,7R)-2-(4-chloro-3-(trifluoromethyl)benzoyl)-3,7-dimethyl-9-((R*)-1-(4-((R*)—S-methylsulfonimidoyl)phenyl)ethyl)-1,2,3,4,8,9-hexahydropyrido[4′,3′:3,4]pyrazolo[1,5-a]pyrazin-10(7H)-one] | – | – | – | 0.026 µM | > 50 µM | > 3 h
